Test results reported in patent US12440496B2, “Natriuretic peptide receptor a agonists useful for the treatment of cardiometabolic diseases, kidney disease and diabetes” (Merck Sharp & Dohme LLC, priority 2019, dated 2025).

Target: T1, hNPRA (Homo sapiens, UniProt P16066)
T1 construct: expressed in transfected cells
T1 sequence (P16066 33-1061): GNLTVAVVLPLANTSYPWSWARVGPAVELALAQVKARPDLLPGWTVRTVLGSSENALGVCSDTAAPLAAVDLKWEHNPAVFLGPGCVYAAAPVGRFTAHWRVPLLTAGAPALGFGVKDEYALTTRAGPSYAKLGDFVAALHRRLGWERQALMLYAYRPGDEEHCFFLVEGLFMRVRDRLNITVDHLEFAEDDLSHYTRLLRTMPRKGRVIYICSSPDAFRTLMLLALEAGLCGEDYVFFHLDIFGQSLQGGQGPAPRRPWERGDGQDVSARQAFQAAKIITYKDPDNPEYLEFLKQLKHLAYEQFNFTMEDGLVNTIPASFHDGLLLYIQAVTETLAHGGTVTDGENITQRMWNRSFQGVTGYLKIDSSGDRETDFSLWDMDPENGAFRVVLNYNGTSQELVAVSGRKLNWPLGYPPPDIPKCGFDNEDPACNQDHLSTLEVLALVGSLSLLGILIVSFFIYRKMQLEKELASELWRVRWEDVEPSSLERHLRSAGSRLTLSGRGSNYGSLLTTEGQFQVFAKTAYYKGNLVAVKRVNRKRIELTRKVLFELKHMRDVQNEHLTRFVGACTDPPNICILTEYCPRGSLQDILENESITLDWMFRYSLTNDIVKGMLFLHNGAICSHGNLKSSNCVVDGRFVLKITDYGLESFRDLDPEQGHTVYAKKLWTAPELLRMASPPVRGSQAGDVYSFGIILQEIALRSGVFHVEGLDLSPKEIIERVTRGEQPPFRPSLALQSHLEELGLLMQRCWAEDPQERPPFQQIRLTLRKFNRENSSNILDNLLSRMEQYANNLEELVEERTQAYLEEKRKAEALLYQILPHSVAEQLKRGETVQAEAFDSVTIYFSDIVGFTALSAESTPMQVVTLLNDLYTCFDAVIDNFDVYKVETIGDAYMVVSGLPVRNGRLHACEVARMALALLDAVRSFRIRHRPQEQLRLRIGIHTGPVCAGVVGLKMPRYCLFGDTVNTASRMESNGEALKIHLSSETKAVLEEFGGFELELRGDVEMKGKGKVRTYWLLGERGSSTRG
Experiment: NPRA Functional Cell Assay (cGMP HTRF, NPRA HEK JumpIn stable cells)
Type: cell-based
Conditions: cGMP production, 1 hour at 37° C., 10-point dose response
Outline: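 cGMP HTRF read-out after 1 hour compound treatment at 37° C. of human NPRA-expressing HEK JumpIn cells, 1500 cells/well, in buffer with phosphodiesterase inhibitors IBMX and RO20 (100 uM each). Signal converted to [cGMP] by calibration curve; EC50s fitted by 4-parameter logistic; 50 nM h-ANP as positive response.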

SMILES | EC50 [nM]
Cn1nccc1-c1ccc([C@@H](CCN2CCCCC2)NC(=O)c2cc3cc4c(nc3s2)CC[C@H](C(C)(C)C)C4)cc1 (racemic) [Example 4, rac-(6S)-6-tert-butyl-N-[rac-(1R)-1-[4-(2-methylpyrazol-3-yl)phenyl]-3-(1-piperidyl)propyl]-5,6,7,8-tetrahydrothieno[2,3-b]quinoline-2-carboxamide] | 753
CC(C)(C)[C@H]1CCc2nc3sc(C(=O)N[C@H](CCNC4(CO)CCC4)c4cccc(NS(C)(=O)=O)c4)cc3cc2C1 (racemic) [Example 15, ammonium; methylsulfonyl-1-[3-[rac-(1R)-3-[[1-(hydroxymethyl)cyclobutyl]amino]-1-[[rac-(6S)-6-tert-butyl-5,6,7,8-tetrahydrothieno[2,3-b]quinoline-2-carbonyl]amino]propyl]phenyl] azanide] | 942
CN(C)CC[C@@H](NC(=O)c1nc2cc3c(nc2s1)CC[C@H](C(C)(C)C)C3)c1ccc(-c2ccc(=O)[nH]c2)cc1 (racemic) [Example 76, rac-(7S)-7-tert-butyl-N-[rac-(1R)-3-(dimethylamino)-1-[4-(6-oxo-1H-pyridin-3-yl)phenyl]propyl]-5,6,7,8-tetrahydrothiazolo[5,4-b]quinoline-2-carboxamide] | 665
CC(C)(C)[C@H]1CCc2nc3sc(C(=O)N[C@H](CCN4CCCC5(CC5)C4)c4cccc(NS(C)(=O)=O)c4)cc3cc2C1 (racemic) [Example 13, ammonium; methylsulfonyl-[3-[rac-(1R)-3-(5-azaspiro[2.5]octan-5-yl)-1-[[rac-(6S)-6-tert-butyl-5,6,7,8-tetrahydrothieno[2,3-b]quinoline-2-carbonyl]amino]propyl]phenyl] azanide] | 809

Stronger by EC50, values ahead:

EC50 [nM] | SMILES
632 | CC(C)(C)[C@H]1CCc2nc3sc(C(=O)N[C@H](CCN4CCCC(O)C4)c4ccccc4)cc3cc2C1 (stereo partly drawn) [Example 251, (6S)-6-tert-butyl-N-[(1R)-3-(3-hydroxypiperidin-1-yl)-1-phenylpropyl]-5,6,7,8-tetrahydrothieno[2,3-b]quinoline-2-carboxamide]
590 | CC(C)(C)[C@H]1CCc2nc3sc(C(=O)N[C@H](CCN4CCC(O)CC4)c4ccc(-c5ccc(=O)[nH]c5)cc4)nc3cc2C1 (racemic) [Example 164, rac-(7S)-7-tert-butyl-N-[rac-(1R)-3-(4-hydroxypiperidin-1-ium-1-yl)-1-[4-(6-hydroxy-3-pyridyl)phenyl]propyl]-5,6,7,8-tetrahydrothiazolo[5,4-b]quinoline-2-carboxamide; 2,2,2-trifluoroacetate]
